Laboratory results from US20140335210A1, “METHOD AND AGROCHEMICAL COMPOSITION FOR USING LARCH WOOD EXTRACTS IN AGRICULTURE” (FLAVITPURE, INC., priority 2013, published 2014).
Where two headings read alike, the source gives them in different places.

Key:
white potato tissue = settings: biphasic, dose dependent; cited from earlier work
[1] = system: Barley (Hordeumvulgare L.) seeds; settings: cited from earlier work
[2] = system: cyp705a5 mutant phenotype; settings: 15 μM in the growth medium; cited from earlier work
Fusarium = settings: about 0.60 to 0.70 mg per 100 g dry weight accumulated in the testa of ant18 mutants
P. expansum [3] = system: P. expansum; design: reduction of lesion diameters: concentration or dose not given beside the values; settings: cited from earlier work; for reduction of lesion diameters: apples Golden Delicious, 16° C. in the dark; for patulin accumulation in apples: in vivo, lesions analyzed by HPLC after 14 days
[4] = system: polar transport of indol-3yl-acetic acid; settings: 4-6 h; stimulation of basipetal, inhibition of acropetal transport; cited from earlier work
[5] = system: vacuolar membrane (H+-ATPase and H+-pyrophosphatase), slow vacuolar (SV) channel; settings: cited from earlier work
cut seed potatoes = settings: cited from earlier work
[6] = system: dihydrotlavonol 4-reductase (DFR); settings: grape cell cultures, addition of compound; cited from earlier work
P. expansum [7] = settings: in vitro, agarized apple juice medium; cited from earlier work
cress seedlings = settings: biphasic, dose dependent; cited from earlier work
[8] = low-grade seeds soaked in aqueous 10^-4 M

Row | SMILES | reduction of lesion diameters (P. expansum [3]; after 6 days of incubation) [%] | reduction of lesion diameters (P. expansum [3]; after 10 days of incubation) [%] | reduction of lesion diameters (P. expansum [3]; after 14 days of incubation) [%] | patulin accumulation in apples (P. expansum [3]) | polarity of the transport of indol-3yl-acetic acid [4] | fungal growth (P. expansum [7]) | reduction of patulin accumulation (P. expansum [7]) [%] | also measured
1 | O=C1c2c(O)cc(O)cc2OC(c2ccc(O)c(O)c2)C1O (stereo not drawn) [Dihydroquercetin (taxifolin)] | 97 | 71 | 27 | no reduction | increased | no inhibition | 48 | oxygen consumption of white potato tissue (white potato tissue): stimulated; activity of ascorbate peroxidase (AsP) ([1]; (+DHQ)-plants): increased more significantly; ratio between TBARs content and AsP activity ([1]; leaves, optimal soil conditions and flooding): lower; germination rate in comparison with the same seeds soaked in water [1, 8]: twofold; mold on seeds [1, 8]: no mold; root growth ([1]; seedlings from pretreated seeds vs non-pretreated): higher; shoot growth ([1]; seedlings from similarly germinated seeds, with vs without pretreatment): did not differ; TBARs content ([1]; soil flooding, roots and leaves, (+DHQ) vs (-DHQ) seedlings): lower; phenotype restored, of the wild type gravity response [2]: ≥ 100%; resistance of seeds to Fusarium infection (Fusarium): extraordinary resistance; active and passive transport systems of the vacuolar membrane [5]: affected; effect on the membranes of isolated vacuoles ([5]; isolated vacuoles): strong stabilizing effect; fungal mold growth on treated seed pieces (cut seed potatoes; incubated in a controlled environment): adequately retarded; thickness of the suberized layer formed below the cut surface (cut seed potatoes; treated seed potato tissue): increases; increase in dihydrotlavonol 4-reductase (DFR) activity [6]: 10 fold; root growth of cress seedlings (cress seedlings): increased
2 | COc1cc(/C=C/C(=O)O)ccc1O [ferulic acid] | – | – | – | – | increased | – | – | –
3 | O=c1c(O)c(-c2ccc(O)cc2O)oc2cc(O)cc(O)c12 [morin] | – | – | – | – | increased | – | – | –
4 | C[C@@H]1O[C@@H](O[C@H]2[C@H](Oc3cc(O)c4c(c3)O[C@H](c3ccc(O)cc3)CC4=O)O[C@H](CO)[C@@H](O)[C@@H]2O)[C@H](O)[C@H](O)[C@H]1O [naringin] | – | – | – | – | increased | – | – | –
5 | O=C1/C(=C/c2ccc(O)c(O)c2)Oc2cc(O)ccc21 [sulfuretin] | – | – | – | – | increased | – | – | –
6 | O=c1ccc2ccc(O)cc2o1 [umbelliferone, reference compound] | 100 | 68 | 38 | no reduction | – | no inhibition | 53 | –
